Reference: ChEMBL document CHEMBL3431459, “Roche carnitine palmitoyltransferase modulator screening data (supplementary data associated with the publication CHEMBL2216752)”
pIC50: −log10 of the molar value. Converted amounts (≈) assume the structure as drawn.

Tests used:
[1] = SUPPLEMENTARY: Lipophilicity (log D) Determination by high-throughput shake-flask; type: physicochemical; conditions: octanol/water
[2] = SUPPLEMENTARY: PAMPA permeability assay; type: physicochemical; conditions: read-out: Permeability
[3] = SUPPLEMENTARY: Lyophilisation Solubility Assay (LYSA); type: physicochemical; conditions: read-out: Kinetic_solubility
[4] = biological target: T1, Carnitine O-palmitoyltransferase 2, mitochondrial (Homo sapiens, UniProt P23786); experiment: (§1) SUPPLEMENTARY: Inhibition of Carnitine palmitoyltransferase 2
T1 sequence (P23786 whole entry): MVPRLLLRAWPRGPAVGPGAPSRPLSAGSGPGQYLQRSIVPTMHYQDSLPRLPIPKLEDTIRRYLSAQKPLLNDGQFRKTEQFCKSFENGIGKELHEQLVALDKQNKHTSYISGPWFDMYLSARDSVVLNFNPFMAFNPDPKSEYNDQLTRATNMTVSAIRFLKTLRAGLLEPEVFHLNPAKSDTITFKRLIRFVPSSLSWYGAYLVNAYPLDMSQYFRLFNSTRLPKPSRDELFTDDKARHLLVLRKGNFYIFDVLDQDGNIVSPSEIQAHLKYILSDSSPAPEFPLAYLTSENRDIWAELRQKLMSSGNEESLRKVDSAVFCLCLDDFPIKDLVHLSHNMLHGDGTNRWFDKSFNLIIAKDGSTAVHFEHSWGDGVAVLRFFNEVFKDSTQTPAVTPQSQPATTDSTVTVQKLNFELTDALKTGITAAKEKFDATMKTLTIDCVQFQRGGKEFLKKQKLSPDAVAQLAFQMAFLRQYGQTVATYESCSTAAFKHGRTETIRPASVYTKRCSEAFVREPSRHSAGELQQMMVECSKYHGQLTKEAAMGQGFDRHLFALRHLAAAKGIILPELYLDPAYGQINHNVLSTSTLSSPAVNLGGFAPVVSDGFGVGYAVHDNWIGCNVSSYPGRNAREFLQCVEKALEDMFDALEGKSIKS

[5] = biological target: T2, Carnitine O-palmitoyltransferase 2, mitochondrial (Rattus norvegicus, UniProt P18886); experiment: as §1
T2 sequence (P18886 whole entry): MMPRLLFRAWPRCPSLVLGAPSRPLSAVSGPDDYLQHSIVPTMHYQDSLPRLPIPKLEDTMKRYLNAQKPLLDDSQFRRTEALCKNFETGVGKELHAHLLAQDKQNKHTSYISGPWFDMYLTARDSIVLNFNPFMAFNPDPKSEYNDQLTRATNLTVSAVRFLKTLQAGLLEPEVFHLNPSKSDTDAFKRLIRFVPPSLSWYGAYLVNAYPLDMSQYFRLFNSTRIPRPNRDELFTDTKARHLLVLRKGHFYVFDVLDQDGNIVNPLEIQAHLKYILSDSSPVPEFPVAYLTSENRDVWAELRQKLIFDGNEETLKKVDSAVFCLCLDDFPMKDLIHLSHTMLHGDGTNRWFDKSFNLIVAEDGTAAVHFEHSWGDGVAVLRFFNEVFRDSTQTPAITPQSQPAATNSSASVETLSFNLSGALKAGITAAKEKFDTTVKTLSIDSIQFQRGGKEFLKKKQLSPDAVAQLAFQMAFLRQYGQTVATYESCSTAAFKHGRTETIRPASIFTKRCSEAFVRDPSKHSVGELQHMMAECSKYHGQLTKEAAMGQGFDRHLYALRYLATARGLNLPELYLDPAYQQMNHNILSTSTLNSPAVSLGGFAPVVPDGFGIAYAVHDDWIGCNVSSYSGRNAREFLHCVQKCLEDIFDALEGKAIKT

[6] = biological target: T3, Carnitine O-palmitoyltransferase 1, liver isoform (Rattus norvegicus, UniProt P32198); experiment: (§2) SUPPLEMENTARY: Inhibition of Carnitine palmitoyltransferase 1, liver isoform
T3 sequence (P32198 whole entry): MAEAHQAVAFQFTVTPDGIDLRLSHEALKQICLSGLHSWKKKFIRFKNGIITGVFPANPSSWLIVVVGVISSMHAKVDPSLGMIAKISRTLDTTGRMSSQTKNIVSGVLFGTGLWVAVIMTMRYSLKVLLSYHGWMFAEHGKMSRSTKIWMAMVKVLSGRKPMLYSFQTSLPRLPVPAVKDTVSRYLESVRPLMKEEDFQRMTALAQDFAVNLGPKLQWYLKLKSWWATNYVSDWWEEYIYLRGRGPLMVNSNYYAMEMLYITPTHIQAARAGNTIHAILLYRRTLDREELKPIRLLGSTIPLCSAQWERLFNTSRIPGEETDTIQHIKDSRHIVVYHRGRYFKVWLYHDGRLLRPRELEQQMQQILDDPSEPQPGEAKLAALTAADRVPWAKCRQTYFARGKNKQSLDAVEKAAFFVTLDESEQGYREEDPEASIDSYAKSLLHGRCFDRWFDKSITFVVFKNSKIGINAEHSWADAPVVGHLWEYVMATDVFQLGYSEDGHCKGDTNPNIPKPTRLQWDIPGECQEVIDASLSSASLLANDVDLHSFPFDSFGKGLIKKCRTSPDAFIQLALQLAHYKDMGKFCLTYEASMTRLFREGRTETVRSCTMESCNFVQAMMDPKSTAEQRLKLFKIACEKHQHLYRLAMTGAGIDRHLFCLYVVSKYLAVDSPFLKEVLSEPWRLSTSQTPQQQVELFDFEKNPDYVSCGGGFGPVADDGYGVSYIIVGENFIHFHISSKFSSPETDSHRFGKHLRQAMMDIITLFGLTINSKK

[7] = biological target: T4, Carnitine O-palmitoyltransferase 1, liver isoform (Homo sapiens, UniProt P50416); experiment: as §2
T4 sequence (P50416 whole entry): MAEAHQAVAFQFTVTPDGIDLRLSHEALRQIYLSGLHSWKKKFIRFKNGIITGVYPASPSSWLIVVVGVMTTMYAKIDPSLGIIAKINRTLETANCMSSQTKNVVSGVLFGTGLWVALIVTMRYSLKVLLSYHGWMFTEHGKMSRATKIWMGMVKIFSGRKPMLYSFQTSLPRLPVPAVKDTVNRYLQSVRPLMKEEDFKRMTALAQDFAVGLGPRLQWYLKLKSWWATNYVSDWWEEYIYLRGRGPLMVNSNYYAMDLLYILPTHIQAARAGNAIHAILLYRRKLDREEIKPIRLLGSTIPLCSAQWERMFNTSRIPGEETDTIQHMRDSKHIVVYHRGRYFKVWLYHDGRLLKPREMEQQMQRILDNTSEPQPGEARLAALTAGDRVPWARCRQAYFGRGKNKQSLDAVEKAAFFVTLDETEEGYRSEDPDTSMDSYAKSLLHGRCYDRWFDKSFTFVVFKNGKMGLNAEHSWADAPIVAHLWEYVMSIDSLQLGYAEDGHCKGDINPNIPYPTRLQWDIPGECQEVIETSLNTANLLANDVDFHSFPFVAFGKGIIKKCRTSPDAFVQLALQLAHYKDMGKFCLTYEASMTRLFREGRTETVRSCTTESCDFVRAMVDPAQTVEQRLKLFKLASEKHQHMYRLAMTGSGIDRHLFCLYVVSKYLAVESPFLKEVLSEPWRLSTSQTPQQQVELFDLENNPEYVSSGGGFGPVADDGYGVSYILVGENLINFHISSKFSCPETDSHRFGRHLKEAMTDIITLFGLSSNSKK

[8] = biological target: T5, Carnitine O-palmitoyltransferase 1, muscle isoform (Homo sapiens, UniProt Q92523); experiment: SUPPLEMENTARY: Inhibition of Carnitine palmitoyltransferase 1, muscle isoform; set-up: species or system Muscle tissue
T5 sequence (Q92523 whole entry): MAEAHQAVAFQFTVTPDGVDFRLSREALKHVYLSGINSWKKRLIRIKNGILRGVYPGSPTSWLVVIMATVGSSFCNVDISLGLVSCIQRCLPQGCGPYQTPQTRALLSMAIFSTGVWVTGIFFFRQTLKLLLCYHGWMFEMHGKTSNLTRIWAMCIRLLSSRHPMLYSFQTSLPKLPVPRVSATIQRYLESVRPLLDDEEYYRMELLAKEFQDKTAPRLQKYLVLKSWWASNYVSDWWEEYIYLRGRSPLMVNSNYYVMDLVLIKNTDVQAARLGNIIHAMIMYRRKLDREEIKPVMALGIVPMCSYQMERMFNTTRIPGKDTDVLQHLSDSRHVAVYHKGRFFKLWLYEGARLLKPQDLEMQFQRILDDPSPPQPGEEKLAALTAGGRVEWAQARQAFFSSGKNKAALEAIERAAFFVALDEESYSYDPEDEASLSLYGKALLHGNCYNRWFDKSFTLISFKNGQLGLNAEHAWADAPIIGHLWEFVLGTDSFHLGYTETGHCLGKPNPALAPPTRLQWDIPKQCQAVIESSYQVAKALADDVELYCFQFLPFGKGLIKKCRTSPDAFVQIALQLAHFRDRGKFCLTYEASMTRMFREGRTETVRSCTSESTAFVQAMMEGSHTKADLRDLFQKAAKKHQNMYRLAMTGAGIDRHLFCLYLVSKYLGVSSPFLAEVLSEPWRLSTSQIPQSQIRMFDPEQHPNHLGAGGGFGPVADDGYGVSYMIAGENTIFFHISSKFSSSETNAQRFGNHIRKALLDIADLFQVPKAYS

Row | Structure (SMILES) | logD [1] | Papp [2] | solubility kinetic [3] | pIC50 [4] | pIC50 [5] | pIC50 [6] | pIC50 [7] | pIC50 [8]
1 | COC(=O)[C@H]1CCCC[C@@H]1c1nc([C@H]2CCCCN2C(=O)COc2ccccc2)no1 | 2.9 | 2.24 ×10⁻⁶ cm/s | 11 µg/mL (≈ 25.7 µM) | 4.24 | 4.07 | 6.32 | 6.83 | < 4.00
2 | COc1ccc(Cl)cc1S(=O)(=O)N1CCOc2c(F)cc(C(=O)Nc3ccc(CC(=O)O)cc3)cc21 | 0.47 | 2.79 ×10⁻⁶ cm/s | 565 µg/mL (≈ 1060 µM) | < 4.00 | < 4.00 | 7.07 | 6.82 | 6.12
3 | COc1ccc(Cl)cc1S(=O)(=O)N[C@@H]1CCCN(C(=O)COc2ccccc2)C1 | 2.59 | 1.36 ×10⁻⁶ cm/s | 64 µg/mL (≈ 146 µM) | 4.68 | < 4.00 | 7.02 | 6.87 | 4.29
4 | CC(=O)Nc1cccc(-c2nc([C@H]3CCCCN3C(=O)COc3ccccc3)no2)c1 | 3.01 | 2.55 ×10⁻⁶ cm/s | 17 µg/mL (≈ 40.4 µM) | 4.14 | < 4.00 | 6.98 | 7.36 | < 4.00
5 | COc1ccc(Cl)cc1Cc1c[nH]c2ccc(C(=O)Nc3nc(CC(=O)O)cs3)cc12 | 1.48 | 0.49 ×10⁻⁶ cm/s | 55 µg/mL (≈ 121 µM) | < 4.00 | < 4.00 | 7.23 | 7.41 | 5.92
6 | O=C(Nc1ccc(C(=O)O)c(Cl)c1)c1ccc2c(c1)N(S(=O)(=O)c1cc(Cl)cc(Cl)c1)CC2 | 2.67 | 1.89 ×10⁻⁶ cm/s | 16 µg/mL (≈ 30.4 µM) | 5.61 | 5.47 | 7.19 | 7.04 | 5.42
7 | COc1ccc(Cl)cc1S(=O)(=O)N1CCOc2c(C)cc(C(=O)Nc3ccc(CC(=O)O)cc3)cc21 | 0.68 | 2.08 ×10⁻⁶ cm/s | 502 µg/mL (≈ 946 µM) | < 4.00 | < 4.00 | 6.69 | 6.56 | 5.44
8 | Nc1cccc(-c2n[nH]c([C@H]3CCCCN3C(=O)COc3ccccc3)n2)c1 | 2.42 | 5.37 ×10⁻⁶ cm/s | 71 µg/mL (≈ 188 µM) | < 4.00 | < 4.00 | 6.09 | 6.96 | < 4.00
9 | O=C(COc1ccccc1)N1CCCC[C@@H]1c1noc(-c2cc[nH]n2)n1 | 2.22 | 5.94 ×10⁻⁶ cm/s | 22 µg/mL (≈ 62.3 µM) | < 4.00 | < 4.00 | 6.65 | 6.66 | < 4.00
10 | Nc1cncc(-c2nc([C@H]3CCCCN3C(=O)COc3ccccc3)no2)c1 | 2.39 | 5.07 ×10⁻⁶ cm/s | 19 µg/mL (≈ 50.1 µM) | 4.72 | < 4.00 | 6.03 | 6.84 | < 4.00
11 | O=C(COc1ccccc1)N1CCCC[C@@H]1c1noc(-c2cnc3ccccc3n2)n1 | 3.22 | 4.18 ×10⁻⁶ cm/s | 12 µg/mL (≈ 28.9 µM) | < 4.00 | < 4.00 | 6.63 | 6.75 | < 4.00
